Activity calls are given as the source filed them. The calls are words filed in the database; no cut-off is given here.
Key:
Tyrosinase [1] = biological target: T1, Tyrosinase (Agaricus bisporus, UniProt O42713); assay: Inhibition of mushroom tyrosinase assessed as reduction in dopachrome formation using L-DOPA as substrate preincubated for 10 mins followed by substrate addition and further incubated for 20 mins by microplate reader assay
T1 sequence (O42713 whole entry): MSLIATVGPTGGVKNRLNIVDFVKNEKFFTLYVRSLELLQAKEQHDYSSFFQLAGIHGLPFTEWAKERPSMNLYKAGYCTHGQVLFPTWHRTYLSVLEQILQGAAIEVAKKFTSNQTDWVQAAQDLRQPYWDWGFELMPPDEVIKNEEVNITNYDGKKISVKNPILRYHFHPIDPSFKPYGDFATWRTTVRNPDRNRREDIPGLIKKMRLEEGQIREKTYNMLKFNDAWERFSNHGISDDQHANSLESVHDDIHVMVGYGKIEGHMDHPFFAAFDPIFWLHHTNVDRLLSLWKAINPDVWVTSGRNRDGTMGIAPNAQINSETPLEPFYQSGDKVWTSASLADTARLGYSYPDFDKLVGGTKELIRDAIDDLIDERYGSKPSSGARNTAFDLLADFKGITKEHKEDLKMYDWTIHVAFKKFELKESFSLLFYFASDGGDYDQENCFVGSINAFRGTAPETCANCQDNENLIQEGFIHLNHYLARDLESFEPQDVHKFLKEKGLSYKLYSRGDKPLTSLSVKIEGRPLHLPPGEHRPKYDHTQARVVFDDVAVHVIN

Tyrosinase [2] = biological target: T1, Tyrosinase
[3] = biological target: T2, Tyrosinase (Mus musculus) (UniProt P11344); assay: Inhibition of tyrosinase in mouse B16F10 cells assessed as transformation of L-DOPA into dopachrome measured after 24 hrs by microplate reader analysis; type: cell-based
T2 sequence (whole entry): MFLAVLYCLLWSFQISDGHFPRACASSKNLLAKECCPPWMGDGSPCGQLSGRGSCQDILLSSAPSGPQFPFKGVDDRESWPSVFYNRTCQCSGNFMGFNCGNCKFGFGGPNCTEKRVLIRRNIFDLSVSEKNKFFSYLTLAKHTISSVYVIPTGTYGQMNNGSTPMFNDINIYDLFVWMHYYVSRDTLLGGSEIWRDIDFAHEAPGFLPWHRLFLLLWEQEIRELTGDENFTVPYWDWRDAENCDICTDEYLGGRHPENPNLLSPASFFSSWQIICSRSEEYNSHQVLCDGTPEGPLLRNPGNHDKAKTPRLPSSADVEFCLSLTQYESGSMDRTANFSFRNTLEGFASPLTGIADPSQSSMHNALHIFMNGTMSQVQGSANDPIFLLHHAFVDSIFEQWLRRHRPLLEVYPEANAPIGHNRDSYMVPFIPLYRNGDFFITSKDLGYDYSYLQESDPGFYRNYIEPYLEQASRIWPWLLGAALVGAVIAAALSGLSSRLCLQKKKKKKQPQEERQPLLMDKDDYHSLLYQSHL

[4] = Cytotoxicity against mouse B16F10 cells assessed as cell viability at 30 ug/ml incubated for 24 hrs by MTT assay relative to control; type: cell-based, B16-F10; settings: read-out: Activity
B16-F10 = assay: Cytotoxicity against mouse B16F10 cells assessed as effect on cell morphology at 20 to 60 ug/ml incubated for 24 hrs by fluorescent inverted microscopy analysis; type: cell-based; settings: b16-f10, 24 h
[5] = biological target: T2, Tyrosinase (Mus musculus); assay: Inhibition of tyrosinase in mouse B16F10 cells assessed as alpha-MSH-stimulated melanogenesis measured as melanin content at 25 to 30 ug/ml measured after 24 hrs in presence of alpha-MSH by microplate reader analysis; type: cell-based
[6] = Cytotoxicity against mouse B16F10 cells assessed as cell viability at 40 ug/ml incubated for 24 hrs by MTT assay relative to control; type: cell-based, B16-F10; settings: read-out: Activity

| SMILES | IC50 (Tyrosinase [1]) | further results |
| --- | --- | --- |
| COc1cccc(OC(=O)COC(=O)c2cc(O)cc(O)c2)c1 | 193 µM |  |
| COc1cccc(OC(=O)COC(=O)c2cccc(O)c2)c1 | 315 µM |  |
| COc1cccc(OC(=O)COC(=O)c2ccc(O)cc2O)c1 | 23.8 µM | Ki (Tyrosinase [2]): 130 µM |
| COc1cccc(OC(=O)COC(=O)c2ccc(O)c(O)c2)c1 | 299 µM |  |

Further lines, with some results ahead:

| IC50 (Tyrosinase [1]) | SMILES | further results |
| --- | --- | --- |
| 124 µM | O=C(/C=C/c1ccc(O)cc1)OCC(=O)Oc1ccc2ccc(=O)oc2c1 |  |
| 5.7 µM | COc1cccc(OC(=O)COC(=O)/C=C/c2ccc(O)cc2)c1 | inhibition [3]: Dose-dependent effect; viability at 24 h, 30 ug/ml [4]: > 99%; Activity (B16-F10): Non-Toxic; Ki (Tyrosinase [2]): 11 µM; inhibition [5]: Active; viability at 24 h, 40 ug/ml [6]: > 95% |
| 173 µM | COc1cccc(OC(=O)COC(=O)/C=C/c2ccccc2O)c1 |  |
| 39.4 µM | COc1cccc(OC(=O)COC(=O)/C=C/c2ccccc2)c1 |  |
| 338 µM | COc1cccc(OC(=O)COC(=O)c2ccc(O)cc2)c1 |  |
